Experimental data: paper PMC8281026, “Peptide Based Inhibitors of Protein Binding to the Mitogen-Activated Protein Kinase Docking Groove” (Frontiers in Molecular Biosciences, 2021)

Experiments:
HL-60 cells [1] = experiment: Cellular uptake by flow cytometry; format: cell-based, human; settings: for fluorescence intensity relative to peptide 9: 90 min, HL-60, flow cytometry, trypsin treated
Experimental: (§1) To study the cellular uptake of fluorescent labeled peptides and conjugate by flow cytometry, 10^5 HL-60 cells per well were plated on 24-well plates and were incubated for 24 h at 37°C. Then cells were treated with the solution of compounds in serum-free media for 90 min. The cellular uptake was analysed at 1, 5 and 10 µM concentrations. Cells treated with serum-free media were the control. At the end of incubation, treatment solutions were removed, and the cells were treated with 100 μL trypsin for 2 min to remove the membrane proteins in order to eliminate non-specific binding of conjugates. The effect of trypsin was terminated by 900 μL HPMI containing 10% fetal calf serum, and the cell suspensions were transferred into FACS-tubes. After centrifugation at 216g at 4°C for 5 min the supernatant was removed. Then cells were resuspended in 500 µl HPMI, and the intracellular fluorescence intensity of HL-60 cells was monitored (on channel FITC LP505; emission at λ = 505 nm; LP 505, BP 530/30) by flow cytometry (BD LSR II, BD Bioscience, San Jose, CA, equipped with 488 nm; Coherent Sapphire, 22 mW laser.) which is proportional to the cellular uptake. Data were analysed with FACSDiVa 5.0 software. Statistical analysis was done using two-sided independent Student’s t-test.

HL-60 cells [2] = experiment: Percent of live cells by flow cytometry; format: cell-based, human; settings: 10 µM, 90 min, serum-free media, HL-60, three independent measurements
Experimental: as §1

HEK-293T cells [3] = experiment: Cellular uptake by fluorescence microscopy; format: cell-based; settings: fluorescence microscopy
Experimental: (§2) The cellular uptake of the fluorescent labeled peptide into HEK-293T cells were analyzed by fluorescence microscopy (Cytation 3, BioTek Instruments) and two peptides were further examined by confocal laser scanning microscopy (Zeiss LSM-710 system). Cells were incubated with peptides in serum-free medium (DMEM) for 3 h at 37 °C and then washed twice with 200 μl of serum-free medium before analyzing.

HEK-293T cells [4] = experiment: Intracellular distribution by confocal laser scanning microscopy; format: cell-based; settings: 10 and 20 µM, 3 h
Experimental: as §2

[5] = tested on: ERK1/2 phosphorylation in HEK-293T cells; experiment: ERK phosphorylation level in cells by Western-blot after EGF stimulation; format: cell-based; settings: pre-treated 20 μM, 5 h, EGF 100 ng/ml
Experimental: To study the effect of peptides on the ERK pathway EGF stimulation and Western-blot analysis were used. HEK-293T cells were plated on 48-well plate and were serum-starved for overnight. Then cells were treated with the Cf-peptide at 20µM for 5 h in 100 μL DMEM and then stimulated by addition of EGF (Sigma, E9644) in 100 ng/mL concentration. Stimulation was terminated at different time points by adding 35 μL 4× SDS loading buffer. Cells were lysed and 10 μL of each sample was subjected to SDS-PAGE. […] The intensities of the protein bands were determined by densitometry and monitored after the stimulation in time. […] Activated (i.e., phosphorylated) ERK and p38 were detected by phospho-p44/42 MAPK (ERK1/2) (see above) and phospho-p38 MAPK (Thr180/Tyr182) rabbit primary antibody (Cell Signaling, #9215) in 1:2000 dilution, respectively. The total ERK and p38 content of the samples were determined by anti-p44/42 MAPK (ERK1/2) mouse primary antibody and anti-p38α MAPK mouse mAb (Cell Signaling, #9228), respectively. […] As secondary antibody anti-rabbit antibody (IRDye® 800CW Goat anti-Rabbit IgG, #926-32211) in 1:5,000 and secondary anti-mouse antibody (IRDye® 680CW Goat anti-Mouse IgG, #926-68070 in 1: 10,000 were used. Protein bands were detected and quantified with LI-COR Odyssey® Clx infrared imaging system. Statistical analysis was done using two-sided independent Student’s t-test.

Substance | fluorescence intensity relative to peptide 9 (HL-60 cells [1]; 1 µM) [times] | fluorescence intensity relative to peptide 9 (HL-60 cells [1]; 5 µM) [times] | fluorescence intensity relative to peptide 9 (HL-60 cells [1]; 10 µM) [times] | internalization compared to the peptide without the Dabcyl-group (HL-60 cells [1]; at different concentrations) | number of live cells (HL-60 cells [2]) [%] | internalization into HEK-293T cells (HEK-293T cells [3]; serum-free medium, 37 °C, up to 3 h, Figure 1) | intracellular distribution (HEK-293T cells [4]) | internalization of the conjugate into HEK-293T cells (HEK-293T cells [3]; after 5 h of treatment at 5 µM (Figure 4 legend: 20 μM, 5 h)) | amount of phosphorylated ERK [5]
Dabcyl-RRRPPWLRLDIRRK(Cf)-NH 2 [compound 11] | 9.2 | 23.5 | 16.9 | 10–24 times | 40 | increased the peptide internalization | more diffuse distribution | – | –
Cf-SLQRKKPPWLKLDIPSC(CH2-CO-RRRRRRRR-NH2)-NH2 [compound 3, Cf-labeled octaarginine conjugate] | – | – | – | – | – | – | – | showed internalization | some reduction
